Reference: US20240207414A1, “DISULFIDE-BASED PRODRUG COMPOUND” (Ludwig-Maximilians-Universitat Munchen, priority 2021, published 2024)

Assays:
[1] = Chemical reductant assay: GSH challenge (cell-free); assay type: physicochemical; conditions: aq. TE buffer pH 7.4, 37° C., 6 h, GSH 0.01-10 mM
From the text: (§1) This assay (see FIG. 1) examined the stability of disulfide-based reduction-triggered compounds of the invention when exposed to monothiol reductants, primarily the major physiological cellular monothiol GSH, and dithiol reductants like the disulfide reductant dithiothreitol (DTT), as evaluated in a cell-free assay, to determine whether these compounds can be useful for selective release.
(§2) Assay Conditions: A black 96-well plate with black bottom was charged with solutions of fluorophore-releasing reduction-triggered probes that are compounds of the invention (P1, P2, P3, P4 and P5) or that are not compounds of the invention and reveal the performance of prior art systems (X19) (80 μL; 25 μM in aq. TE buffer (pH 7.4) and 1.25% vol DMSO). Solutions of challenge species chosen from the monothiol glutathione (GSH, 0.1-50 mM) and the dithiol reductant dithiothreitol (DTT, 0.1-50 mM) or phosphine reductant tris-(2-carboxyethyl) phosphine (TCEP); (20 μL; 1 mM in aq. TE buffer (pH 7.4) were added and the reaction mixtures were incubated at 37° C. for 6 h while measuring fluorescence intensity over time [F(t)] using a BMG Labtech FLUOstar Omega platereader (λexc=355 nm, Δem=530 nm for PQ-OH-releasing probes X19, P1 and P2; Δexc=485 nm, Δem=530 nm for MF-OH-releasing probes P3 and P4.
(§3) Data Representation: F^max is the maximum possible fluorescence increase corresponding to complete reduction-triggered cargo release, i.e. the fluorescence intensity increase from time zero to signal plateau under TCEP incubation PQ-OH-releasing probes. F(t)/F^max(t) thus gives the timecourse measurements of fluorescence intensity, as a fraction of the maximum possible fluorescence signal. F^sat is the endpoint fluorescence intensity increase for each condition, ie. F^sat=(F(6 h)). F^sat/F^max thus gives the assay endpoint fluorescence intensity increase, as a fraction of the maximum possible fluorescence signal. In the GSH timecourse measurements shown in FIG. 1, all datasets annotated with concentrations only (0.01-10 mM) refer to GSH challenges, while datasets for TCEP positive control (100 μM) and no-reductant control (blank) are shown for comparison. The dose-response plots show F^sat/F^max for the different ratios between probe and GSH or probe and DTT concentrations, with a logarithmic horizontal scale.

[2] = Chemical reductant assay: DTT challenge (cell-free); assay type: physicochemical; conditions: aq. TE buffer pH 7.4, 37° C., 6 h
From the text: as §1, §2, §3

[3] = test system: HeLa, A549 and MEF cells; assay: Cellular reduction assay (FIG. 3); assay type: cell-based, human, mouse; conditions: 100 μM, 1% vol DMSO, cells under ordinary conditions
Method: Assay Conditions: Cells were cultured under standard conditions (Gao, L. et al. Cell Chemical Biology 2021, 28, 1-14. https://doi.org/10.1016/j.chembiol.2020.11.007), left to adhere for 24 h, then compounds were added to 100 μM with 1% vol DMSO. Fluorescence timecourse measurements were acquired as in the chemoreductant assay, with all conditions in triplicates.
Data Representation: F(t)-F(0) is the fluorescence intensity signal increase as compared to time zero signal (fluorescence intensity immediately following compound addition, before probe activation can occur), in arbitrary units although with the same detection settings for all probes releasing the same cargo. This corresponds to reduction-triggered cargo release. “ctrf” indicates cells not treated with probes, as a negative control.

[4] = test system: control MEF cells (fl/fl); assay: In vitro TrxR knockout assay: control MEF (fl/fl) viability; assay type: cell-based; conditions: Mus musculus, 48 h, resazurin, read-out: IC50 antiproliferation / cell viability
Method: (§4) Assay Conditions: TrxR1 knockout and reference mouse embryonic fibroblasts (MEF) were a gift by Marcus Conrad (LMU Munich) and initially isolated from conditional TrxR1 knockout mouse embryos, were immortalised by lentiviral transduction. In vitro deletion of TrxR1 was achieved by Tat-Cre induced recombination and verified by PCR and Immunoblotting for TrxR1 as described in Conrad et al. Cancer Res. 2010, 70, 22, 9505. MEF knockout (ko) and control (fl/fl) cells were cultured under standard conditions, left to adhere for 24 h, then P17 or P18 were added from DMSO stock solution and adjusted to 1% vol DMSO. Cells were incubated under standard conditions for 48 h, then 0.20 volume equivalents of a solution of resazurin in PBS (0.15 mg/mL) were added and incubated for 3 h, then fluorescence (ex 544 nm, em 590 nm) was detected on a fluorescence platereader. Cell viability (%) is calculated relative to a control experiment with no P17 or P18 added, from the fluorescence values.

[5] = test system: MEF cells with genetic knockout of TrxR (TrxR ko); assay: In vitro TrxR knockout assay: TrxR1 knockout MEF viability; assay type: cell-based, mouse; conditions: MEF TrxR ko versus fl/fl, 48 h, resazurin
Method: as §4

[6] = test system: HeLa cells; assay: In vitro cell viability assay P21, P22 (resazurin); assay type: cell-based, human; conditions: 48 h
Method: (§5) Assay Conditions: Cells (A549 cells for P19 and P20; HeLa cells for P21 and P22) were cultured under standard conditions (Gao, L. et al. Cell Chemical Biology 2021, 28, 1-14. https://doi.org/10.1016/j.chembiol.2020.11.007), left to adhere for 24 h, then P19, P20, P21 or P22 were added from DMSO stock solution and adjusted to 1% vol DMSO. Cells were incubated under standard conditions for 48 h, then 0.20 volume equivalents of a solution of resazurin in PBS (0.15 mg/mL) were added and incubated for 3 hours, then fluorescence (ex 544 nm, em 590 nm) was detected on a fluorescence platereader. Cell viability (%) was calculated relative to a control experiment (no compound) from the fluorescence values.

[7] = test system: A549 cells; assay: In vitro cell viability assay P19, P20 (resazurin); assay type: cell-based, human; conditions: 48 h
Method: as §5

SMILES: COc1ccc2c(c1)Oc1cc(OC(=O)N3CCC[C@@H]4CSSC[C@@H]43)ccc1C21OC(=O)c2ccccc21 (mixture of isomers) [Compound P4, 3′-methoxy-3-oxo-3H-spiro[isobenzofuran-1,9′-xanthen]-6′-yl-cis-hexahydro-[1,2]dithiino[4,5-b]pyridine-1(2H)-carboxylate]
- cargo release (fluorescence) when challenged with monothiol reductant GSH [1]: do not release cargo
- activation / cargo release by dithiol reductant DTT [2]: efficiently activated by dithiol-type reductants
- cargo release inside cells (fluorescence signal increase over time) [3]: do not release cargo inside cells under ordinary conditions

SMILES: COc1cc2cc(C(=O)N3C[C@@H](CCl)c4c3cc(OC(=O)N3CCN(C)[C@@H]5CSSCC53)c3ccccc43)[nH]c2c(OC)c1OC (mixture of isomers) [Compound P17, (S)-1-(chloromethyl)-3-(5,6,7-trimethoxy-1H-indole-2-carbonyl)-2,3-dihydro-1H-benzo[e]indol-5-yl (cis)-4-methylhexahydro-[1,2]dithiino[4,5-b]pyrazine-1(2H)-carboxylate]
- IC50 [4]: ~100 nM
- activation / cytotoxicity in TrxR ko cells compared to control cells [5]: activated less effectively

SMILES: O=C(Oc1ccc(Cl)cc1-c1nc2ccc(Cl)cc2c(=O)[nH]1)N1CCN[C@@H]2CSSC[C@H]21 (racemic) [Compound P5, 4-chloro-2-(6-chloro-4-oxo-3,4-dihydroquinazolin-2-yl)phenyl trans-hexahydro-[1,2]dithiino[4,5-b]pyrazine-1(2H)-carboxylate]
- cargo release (fluorescence) when challenged with monothiol reductant GSH [1]: does release cargo very efficiently
- activation / cargo release by dithiol reductant DTT [2]: unusually strong and fast response
- cargo release inside cells (fluorescence signal increase over time) [3]: substantially release cargo inside cells cultured under ordinary conditions

SMILES: COc1ccc2c(c1)Oc1cc(OC(=O)N3CCC[C@@H]4CSSC[C@H]43)ccc1C21OC(=O)c2ccccc21 (mixture of isomers) [Compound P3, 3′-methoxy-3-oxo-3H-spiro[isobenzofuran-1,9′-xanthen]-6′-yl-(trans)-hexahydro-[1,2]dithiino[4,5-b]pyridine-1(2H)-carboxylate]
- cargo release (fluorescence) when challenged with monothiol reductant GSH [1]: do not release cargo
- activation / cargo release by dithiol reductant DTT [2]: efficiently activated by dithiol-type reductants

SMILES: COc1cc2cc(C(=O)N3C[C@@H](CCl)c4c3cc(OC(=O)N3CCN(C(=O)CCC(=O)N5CCN(C)CC5)[C@@H]5CSSCC53)c3ccccc43)[nH]c2c(OC)c1OC (mixture of isomers) [Compound P18, (S)-1-(chloromethyl)-3-(5,6,7-trimethoxy-1H-indole-2-carbonyl)-2,3-dihydro-1H-benzo[e]indol-5-yl (cis)-4-(4-(4-methylpiperazin-1-yl)-4-oxobutanoyl)hexahydro-[1,2]dithiino[4,5-b]pyrazine-1(2H)-carboxylate]
- IC50 [4]: ~100 nM
- activation / cytotoxicity in TrxR ko cells compared to control cells [5]: activated less effectively

SMILES: CC[C@@]1(O)C(=O)OCc2c1cc1n(c2=O)Cc2cc3c(CN(C)C)c(OC(=O)N4CCCC5CSSC[C@H]54)ccc3nc2-1 (mixture of isomers) [Compound P21, (R)-10-((dimethylamino)methyl)-4-ethyl-4-hydroxy-3,14-dioxo-3,4,12,14-tetrahydro-1H-pyrano[3′,4′:6,7]indolizino[1,2-b]quinolin-9-yl (cis)-hexahydro-[1,2]dithiino[4,5-b]pyridine-1(2H)-carboxylate]
- tolerability in cells compared with Irinotecan [6]: equally well-tolerated in cells as the approved cancer prodrug Irinotecan
- toxicity to cells compared with SN-38 [6]: significantly less toxic to cells than the parent compound

SMILES: CCc1c2c(nc3ccc(OC(=O)N4CCN[C@@H]5CSSC[C@@H]54)cc13)-c1cc3c(c(=O)n1C2)COC(=O)[C@]3(O)CC (racemic) [Compound P19, (R)-4,11-diethyl-4-hydroxy-3,14-dioxo-3,4,12,14-tetrahydro-1H-pyrano[3′,4′:6,7]indolizino[1,2-b]quinolin-9-yl (cis)-hexahydro-[1,2]dithiino[4,5-b]pyrazine-1(2H)-carboxylate]
- tolerability in cells compared with Irinotecan [7]: equally well-tolerated in cells as the approved cancer prodrug Irinotecan
- toxicity to cells compared with SN-38 [7]: significantly less toxic to cells than the parent compound

SMILES: CCc1c2c(nc3ccc(OC(=O)N4CCN(C(=O)CCC(=O)N5CCN(C)CC5)[C@@H]5CSSC[C@@H]54)cc13)-c1cc3c(c(=O)n1C2)COC(=O)[C@]3(O)CC (racemic) [Compound P20, (R)-4,11-diethyl-4-hydroxy-3,14-dioxo-3,4,12,14-tetrahydro-1H-pyrano[3′,4′:6,7]indolizino[1,2-b]quinolin-9-yl (cis)-4-(4-(4-methylpiperazin-1-yl)-4-oxobutanoyl)hexahydro-[1,2]dithiino[4,5-b]pyrazine-1(2H)-carboxylate]
- tolerability in cells compared with Irinotecan [7]: equally well-tolerated in cells as the approved cancer prodrug Irinotecan
- toxicity to cells compared with SN-38 [7]: significantly less toxic to cells than the parent compound

SMILES: CC[C@@]1(O)C(=O)OCc2c1cc1n(c2=O)Cc2cc3c(CN(C)C)c(OC(=O)N4CCCC5CSSC[C@@H]54)ccc3nc2-1 (mixture of isomers) [Compound P22, (R)-10-((dimethylamino)methyl)-4-ethyl-4-hydroxy-3,14-dioxo-3,4,12,14-tetrahydro-1H-pyrano[3′,4′:6,7]indolizino[1,2-b]quinolin-9-yl (trans)-hexahydro-[1,2]dithiino[4,5-b]pyridine-1(2H)-carboxylate]
- tolerability in cells compared with Irinotecan [6]: equally well-tolerated in cells as the approved cancer prodrug Irinotecan
- toxicity to cells compared with SN-38 [6]: significantly less toxic to cells than the parent compound
